This test concerns the target T1, GFP-CTK (mGFP-tagged C-terminal region of K-ras) in MDCK cells (Homo sapiens, UniProt P01116).
T1 construct: hypervariable region of K-ras (amino acids 166-188) cloned onto the carboxy terminus of GFP; expressed in transfected cells
Nature of the test: High throughput cell-based screen: plasma membrane localization of GFP-CTK. Further details: species or system canine. The conditions noted are these: fendiline HCl 4 ug/ml, 48 h, MDCK. The procedure: FIG. 1: Illustrates results of a high throughput cell-based screening of chemical libraries: Madin-Darby Canine Kidney epithelial cells (MDCK) expressing monomeric green fluorescent protein (mGFP)-tagged C-terminal region of K- or H-ras (GFP-CTK and GFP-CTH) were seeded in 96 well plates and treated with drug libraries for 48 h. Cells were then fixed with paraformaldehyde and imaged by BD Pathway Imager in confocal mode; shown are representative images of cells treated with vehicle, […], and 10 μM FTI-276; wherein experimentation was performed in accordance with principles described herein;
In accordance with some embodiments described herein, wild type MDCK cells or MDCK cells expressing monomeric green fluorescent protein (mGFP)-tagged C-terminal region of K-ras or H-ras (GFP-CTK and GFP-CTH respectively) were seeded in triplicate in 96 well plates (Matrical) at a density of 30,000 cells/well and incubated for 24 h at 37° C. Compounds were individually added to test cells at a concentration of 4 μg/mL (concentration of DMSO 1%) and incubated for a further 48 h.
Cells were then fixed with 4% paraformaldehyde and stored in PBS at 4° C. until imaged. Plates were imaged using a BD Pathway High-Throughput Bioimager. Images were acquired by a 3×3 montage with 20× objective lens using GFP-confocal mode. […]

Counter-ions that a name gives are not always drawn.

T1 sequence (P01116 166-188 isoform P01116-2 limits assumed): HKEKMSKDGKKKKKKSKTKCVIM

Regarding `CC(NCCC(c1ccccc1)c1ccccc1)c1ccccc1` (stereo not shown) [fendiline HCl], the “localization of GFP-CTK” value was “specifically affected localization of GFP-CTK”.

The record behind these values is patent US9474730B2, “Methods and compositions for use with K-ras mediated disorders” (Board of Regents of the University of Texas System, priority 2012, dated 2016).
